For this experiment, the target named is T1, human NK3 receptor (Homo sapiens, UniProt P29371).
T1 construct: expressed in transfected cells; host or cells: HEK293 cells (transient expression), membrane preparation
T1 sequence (P29371 1-465): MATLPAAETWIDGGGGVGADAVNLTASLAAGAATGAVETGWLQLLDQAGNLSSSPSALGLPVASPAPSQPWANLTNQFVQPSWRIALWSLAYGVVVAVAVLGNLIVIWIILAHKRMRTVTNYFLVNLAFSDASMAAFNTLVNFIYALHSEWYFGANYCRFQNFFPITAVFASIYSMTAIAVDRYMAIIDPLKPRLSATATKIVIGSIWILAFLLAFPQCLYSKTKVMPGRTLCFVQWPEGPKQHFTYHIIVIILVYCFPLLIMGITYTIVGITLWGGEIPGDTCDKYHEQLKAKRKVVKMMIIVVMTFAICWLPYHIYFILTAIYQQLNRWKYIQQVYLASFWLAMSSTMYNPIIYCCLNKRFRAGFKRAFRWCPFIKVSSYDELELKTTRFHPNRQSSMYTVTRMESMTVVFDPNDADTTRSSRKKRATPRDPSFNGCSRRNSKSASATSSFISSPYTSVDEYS
Briefly: [3H]SR142801 competition binding assay (hNK3 receptor binding). As to conditions: [3H]SR142801 radioligand; membranes from HEK293 cells transiently expressing recombinant human NK3 receptor; Ki by Cheng-Prussoff; read-out: KiNK3 h. As to the method: [^3H]SR^142801 Competition Binding Assay
hNK3 receptor binding experiment were performed using [^3H]SR^142801 (Catalog No. TRK1035, specific activity: 74.0 Ci/mmol, Amersham, GE Healthcare UK limited, Buckinghamshire, UK) and membrane isolated from HEK293 cells transiently expressing recombinant human NK3 receptor. After thawing, the membrane homogenates were centrifuged at 48,000×g for 10 min at 4° C., the pellets were resuspended in the 50 mM Tris-HCl, 4 mM MnCl2, 1 μM phosphoramidon, 0.1% BSA binding buffer at pH 7.4 to a final assay concentration of 5 μg protein/well. […] At the end of the incubation, membranes were filtered onto unitfilter (96-well white microplate with bonded GF/C filter preincubated 1 h in 0.3% PEI +0.3% BSA, Packard BioScience, Meriden, Conn.) with a Filtermate 196 harvester (Packard BioScience) and washed 4 times with ice-cold 50 mM Tris-HCl, pH 7.4 buffer. Nonspecific binding was measured in the presence of 10 μM SB222200 for both radioligands. The radioactivity on the filter was counted (5 min) on a Packard Top-count microplate scintillation counter with quenching correction after addition of 45 μl of microscint 40 (Canberra Packard S.A., Zutrich, Switzerland) and shaking for 1 h. Inhibition curves were fitted according to the Hill equation: y=100/(1+(x/IC50)^nH), where nH=slope factor using Excel-fit 4 software (Microsoft). IC50 values were derived from the inhibition curve and the affinity constant (Ki) values were calculated using the Cheng-Prussoff equation Ki=IC50/(1+[L]/KD) where [L] is the concentration of radioligand and KD is its dissociation constant at the receptor, derived from the saturation isotherm. All experiments were performed in duplicate and the mean ± standard error (SEM) of the individual Ki values was calculated.
On to `C[C@H](Oc1ccc(C#N)cn1)[C@H]1CN(C(=O)c2ccc(-c3nnco3)cc2)C[C@@H]1c1ccc(Cl)c(Cl)c1` (racemic) [Example 63, 6-{(SR)-1[-(3RS,4SR)-4-(3,4-Dichloro-phenyl)-1-(4-[1,3,4]oxadiazol-2-yl-benzoyl)-pyrrolidin-3-yl]-ethoxy}-nicotinonitrile], for which the Ki was determined as 2.1 nM.

On to `Cc1nccn1-c1ccc(C(=O)N2C[C@H]([C@H](C)Oc3ccc(C#N)cn3)[C@@H](c3ccc(Cl)c(Cl)c3)C2)cc1` (racemic) [Example 64, 6-((SR)-1-{(3RS,4SR)-4-(3,4-Dichloro-phenyl)-1-[4-(2-methyl-imidazol-1-yl)-benzoyl]-pyrrolidin-3-yl}-ethoxy)-nicotinonitrile], for which the Ki turned out to be 35.7 nM.

With `C[C@H](Oc1ccc(C#N)cn1)[C@H]1CN(C(=O)c2ccc(-n3cccn3)nc2)C[C@@H]1c1ccc(Cl)c(Cl)c1` (racemic) [Example 65, 6-{(SR)-1-[(3RS,4SR)-4-(3 ,4-Dichloro-phenyl)-1-(6-pyrazol-1-yl-pyridine-3-carbonyl)-pyrrolidin-3-yl]-ethoxy}-nicotinonitrile], the Ki was determined as 2.6 nM.

On to `C[C@H](Oc1ccc(C#N)cn1)[C@H]1CN(C(=O)c2ccc(S(C)(=O)=O)nc2)C[C@@H]1c1ccc(Cl)c(Cl)c1` (racemic) [Example 66, 6-{(SR)-1-[(3RS,4SR)-4-(3,4-Dichloro-phenyl)-1-(6-methanesulfonyl-pyridine-3-carbonyl)-pyrrolidin-3-yl]-ethoxy}-nicotinonitrile], for which the Ki came to 3.8 nM.

As to `C[C@H](Oc1ccc(C#N)cn1)[C@H]1CN(C(=O)c2ccc(C#N)cc2F)C[C@@H]1c1ccc(Cl)c(Cl)c1` (racemic) [Example 67, 6-{(SR)-1-[(3RS,4SR)-1-(4-Cyano-2-fluoro-benzoyl)-4-(3,4-dichloro-phenyl)-pyrrolidin-3-yl]-ethoxy}-nicotinonitrile], the Ki came to 5.8 nM.

Consider `Cc1ccc(C(=O)N2C[C@H]([C@H](C)Oc3ccc(C#N)cn3)[C@@H](c3ccc(Cl)c(Cl)c3)C2)cn1` (racemic) [Example 68, 6-{(SR)-1-[(3RS,4SR)-4-(3,4-Dichloro-phenyl)-1-(6-methyl-pyridine-3-carbonyl)-pyrrolidin-3-yl]-ethoxy}-nicotinonitrile], for which the Ki came to 14.7 nM.

`C[C@H](Oc1ccc(C#N)cn1)[C@H]1CN(C(=O)c2ccc3[nH]cnc3c2)C[C@@H]1c1ccc(Cl)c(Cl)c1` (racemic) [Example 69, 6-{(SR)-1-[(3RS,4SR)-1-(1H-Benzoimidazole-5-carbonyl)-4-(3,4-dichloro-phenyl)-pyrrolidin-3-yl]-ethoxy}-nicotinonitrile]: the Ki was determined as 28.9 nM.

As for `COc1ncc(C(=O)N2C[C@H]([C@H](C)Oc3ccc(C#N)cn3)[C@@H](c3ccc(Cl)c(Cl)c3)C2)cn1` (racemic) [Example 70, 6-{(SR)-1-[(3RS,4SR)-4-(3,4-Dichloro-phenyl)-1-(2-methoxy-pyrimidine-5-carbonyl)-pyrrolidin-3-yl]-ethoxy}-nicotinonitrile], the Ki was 34.9 nM.

On to `C[C@H](Oc1ccc(C#N)cn1)[C@H]1CN(C(=O)c2ccc(-n3ccnc3)nc2)C[C@@H]1c1ccc(Cl)c(Cl)c1` (racemic) [Example 71, 6-{(SR)-1-[(3RS,4SR)-4-(3,4-Dichloro-phenyl)-1-(6-imidazol-1-yl-pyridine-3-carbonyl)-pyrrolidin-3-yl]-ethoxy}-nicotinonitrile], for which the Ki worked out at 6.1 nM.

Turning to `C[C@H](Oc1ccc(C#N)cn1)[C@H]1CN(C(=O)c2ccc(C(F)(F)F)nc2)C[C@@H]1c1ccc(Cl)c(Cl)c1` (racemic) [Example 72, 6-{(SR)-1-[(3RS,4SR)-4-(3,4-Dichloro-phenyl)-1-(6-trifluoromethyl-pyridine-3-carbonyl)-pyrrolidin-3-yl]-ethoxy}-nicotinonitrile], the Ki stood at 20.9 nM.
